Three compounds from patent US12552783B2, “Modulators of proteolysis and associated methods of use” (Arvinas Operations, Inc., priority 2018, dated 2026) can be followed below.

A value given as a limit tells only on which side of the number the result lay.

Experiment [1] deals with T1, KRas (Homo sapiens, UniProt P01116, G12C). The experiment in a line: KRas degradation in NCI-H2030 cells by Western blot, normalized to GAPDH (data of Table 14). The note with it: H2030 cells; for Dmax: NCI-H2030. Set-up: host or cells: NCI-H2030. Format: cell-based. In outline: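 Readout: GAPDH-normalized KRas immunoblot signal, expressed as percent degradation versus 0.1% DMSO vehicle. Treatment: 0.3, 1, 3 μM after 24 h starvation; 24 h (VHL-based) or 72 h (others).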
(A western blot detects proteins with antibodies after separation by electrophoresis.)

For experiment [2], the target named is T1, KRas. Put plainly: KRas degradation in SW1573 cells by Western blot, normalized to GAPDH (data of Table 14). Format: cell-based. The note with it: SW1573 cells. In outline: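 SW1573 cells, homozygous for the KRas G12C mutation and maintained in DMEM with 10% FBS and 1% penicillin-streptomycin, were seeded in 12-well plates, allowed to attach overnight at 37° C. under 5% CO2, then serum-starved for 24 hours before compound exposure. KRas levels were measured by Western blot, normalized to GAPDH, and compared with DMSO controls to give percent degradation, DC50 and Dmax.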

Consider `C=CC(=O)N1CCN(c2nc(O[C@H](C)CN3CCC(OCCOCCOCCOCCOCC(=O)N[C@H](C(=O)N4C[C@H](O)C[C@H]4C(=O)N[C@@H](C)c4ccc(-c5scnc5C)cc4)C(C)(C)C)CC3)nc3c(F)c(-c4cc(O)cc5ccccc45)c(Cl)cc23)CC1` [compound 401, (2S,4R)-1-((2S)-17-((1-((2R)-2-((4-(4-acryloylpiperazin-1-yl)-6-chloro-8-fluoro-7-(3-hydroxynaphthalen-1-yl)quinazolin-2-yl)oxy)propyl)piperidin-4-yl)oxy)-2-(tert-butyl)-4-oxo-6,9,12,15-tetraoxa-3-azaheptadecanoyl)-4-hydroxy-N-((S)-1-(4-(4-methylthiazol-5-yl)phenyl)ethyl)pyrrolidine-2-carboxamide], for which the “Percent Degradation at Indicated Concentration (μM)” value (from here on “Percent Degradation”) in experiment [1] (0.3 μM), in experiment [1] (1 μM), in experiment [1] (3 μM), in experiment [2] (0.01 μM), in experiment [2] (0.03 μM) and in experiment [2] (0.1 μM) was “C (Percent Degradation: C ≤ 35)” each time. For the same compound, the “Percent Degradation” value in experiment [2] (0.3 μM) and in experiment [2] (1 μM) was “C (Percent Degradation: C ≤ 35)” in each case. Further, the Dmax in experiment [1] and in experiment [2] was at most 35% throughout. The DC50 in experiment [2] is at least 1000 nM.

As to `C=CC(=O)N1CCN(c2nc(O[C@H](C)CN3CCC(OCCOCCOCCOCCOCCOCC(=O)N[C@H](C(=O)N4C[C@H](O)C[C@H]4C(=O)N[C@@H](C)c4ccc(-c5scnc5C)cc4)C(C)(C)C)CC3)nc3c(F)c(-c4cc(O)cc5ccccc45)c(Cl)cc23)CC1` [compound 402, (2S,4R)-1-((2S)-20-((1-((2R)-2-((4-(4-acryloylpiperazin-1-yl)-6-chloro-8-fluoro-7-(3-hydroxynaphthalen-1-yl)quinazolin-2-yl)oxy)propyl)piperidin-4-yl)oxy)-2-(tert-butyl)-4-oxo-6,9,12,15,18-pentaoxa-3-azaicosanoyl)-4-hydroxy-N-((S)-1-(4-(4-methylthiazol-5-yl)phenyl)ethyl)pyrrolidine-2-carboxamide], the “Percent Degradation” value in experiment [1] (0.3 μM), in experiment [1] (1 μM), in experiment [1] (3 μM), in experiment [2] (0.01 μM), in experiment [2] (0.03 μM) and in experiment [2] (0.1 μM) was “C (Percent Degradation: C ≤ 35)” throughout. Further, the “Percent Degradation” value in experiment [2] (0.3 μM) and in experiment [2] (1 μM) was “C (Percent Degradation: C ≤ 35)” in each case. The Dmax in experiment [1] and in experiment [2] was at most 35% in each case. In addition, the DC50 in experiment [2] is at least 1000 nM.

For `C=CC(=O)N1CCN(c2nc(OC[C@@H]3C[C@@H](OCCOCCOCCOCCOCC(=O)N[C@H](C(=O)N4C[C@H](O)C[C@H]4C(=O)N[C@@H](C)c4ccc(-c5scnc5C)cc4)C(C)(C)C)CN3C)nc3c2CCN(c2cccc4ccccc24)C3)C[C@@H]1CC#N` [compound 480], the “Percent Degradation” value in experiment [2] (0.1 μM), in experiment [2] (0.3 μM) and in experiment [2] (1 μM) was “C (Percent Degradation: C ≤ 35)” each time.

Broadly, the Dmax is the greatest extent of degradation seen. What is called DC50 is the concentration giving 50% degradation. Higher therefore signals degradation only at high concentration.
